This note sets out measurements from PubChem BioAssay AID270 (DTP/NCI, 2004).

In this test the test system is BDF1 mice, s.c. Lewis lung carcinoma, T/C %. Put plainly: NCI In Vivo Anticancer Drug Screen. Data for tumor model Lewis Lung Carcinoma (subcutaneous) in B6D2F1 (BDF1) mice. The method in brief:
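Readout: survival or tumor size, expressed as treated (T) over vehicle control (C). Transplantable tumor implanted in mice; compound given to the treated group.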

[1] abbreviates: endpoint: mean tumor weight, dose: 50.0 mg/kg/injection, schedule: Q01DX011 (sc), vehicle: steriod suspending solution, higher = larger tumour.
Setting [2] is: endpoint: mean tumor weight, dose: 250.0 mg/kg/injection, schedule: Q01DX011 (ip), vehicle: saline, higher = larger tumour.
Setting [3] is: endpoint: mean tumor weight, dose: 200.0 mg/kg/injection, schedule: Q01DX011 (ip), vehicle: other, higher = larger tumour.
Where [4] appears, read: endpoint: median survival time, dose: 1.25 mg/kg/injection, schedule: Q01DX009 (ip), vehicle: Klucel (hydroxypropylcellulose) (HPC), higher = longer survival.
Where [5] appears, read: endpoint: mean tumor weight, dose: 100.0 mg/kg/injection, schedule: Q01DX011 (ip), vehicle: saline, higher = larger tumour.
[6] abbreviates: endpoint: mean tumor weight, dose: 200.0 mg/kg/injection, schedule: Q01DX011 (ip), vehicle: saline, higher = larger tumour.

Several values for one entry are separate records, joined by “and”; a condition that tells them apart may be missing. Equal values may be shown once. Records with an inconclusive call do not appear.

With `COc1ccc2c(c1)CC[C@@H]1[C@@H]2CC[C@]2(C)/C(=N\O)CC[C@@H]12`, the T/C is 43 % of control under setting [1]; 53 % of control (endpoint: mean tumor weight, dose: 115.0 mg/kg/injection, schedule: Q01DX011 (sc), vehicle: steriod suspending solution, higher = larger tumour); 45 % of control (endpoint: mean tumor weight, dose: 170.0 mg/kg/injection, schedule: Q01DX011 (sc), vehicle: steriod suspending solution, higher = larger tumour); 53 % of control (endpoint: mean tumor weight, dose: 200.0 mg/kg/injection, schedule: Q01DX011 (sc), vehicle: steriod suspending solution, higher = larger tumour); 36 % of control (endpoint: mean tumor weight, dose: 250.0 mg/kg/injection, schedule: Q01DX011 (sc), vehicle: steriod suspending solution, higher = larger tumour); 43 % of control (endpoint: mean tumor weight, dose: 375.0 mg/kg/injection, schedule: Q01DX011 (sc), vehicle: steriod suspending solution, higher = larger tumour). The T/C is, setting by setting: (endpoint: mean tumor weight, dose: 400.0 mg/kg/injection, schedule: Q01DX011 (sc), vehicle: steriod suspending solution, higher = larger tumour) 50 % of control; (endpoint: mean tumor weight, dose: 600.0 mg/kg/injection, schedule: Q01DX011 (sc), vehicle: steriod suspending solution, higher = larger tumour) 24 % of control.

In the case of `CNC=O`, the T/C under setting [2] is 67 % of control and 69 % of control; the T/C (endpoint: mean tumor weight, dose: 500.0 mg/kg/injection, schedule: Q01DX011 (ip), vehicle: saline, higher = larger tumour) is 10 % of control and 12 % of control.

Turning to `COc1ccc(-c2cc(=O)c3c(O)c(OC)c(OC)c(OC)c3o2)cc1`, the T/C was 95 % of control (endpoint: mean tumor weight, dose: 12.5 mg/kg/injection, schedule: Q01DX011 (ip), vehicle: saline, higher = larger tumour); 100 % of control (endpoint: mean tumor weight, dose: 25.0 mg/kg/injection, schedule: Q01DX011 (ip), vehicle: saline, higher = larger tumour); 63 % of control under setting [1]; 90 % of control (endpoint: mean tumor weight, dose: 100.0 mg/kg/injection, schedule: Q01DX011 (sc), vehicle: steriod suspending solution, higher = larger tumour).

On to `CC(=O)N(C)C(C(=O)N1CC(C)CC1C(=O)N(C)C1C(=O)NC(CC(C)C)C(=O)N2CC(C)CC2C(=O)NC(CC(C)C)C(=O)N(C)C(C(C)C)C(=O)N2CCCC2C(=O)N(C)C(CC(C)C)C(=O)NCC(=O)OC1C)C(C)C` (centres undefined), for which the T/C reads like this: (endpoint: median survival time, dose: 9.4 mg/kg/injection, schedule: Q01DX009 (ip), vehicle: Klucel (hydroxypropylcellulose) (HPC), higher = longer survival) 94 % of control; (endpoint: median survival time, dose: 18.75 mg/kg/injection, schedule: Q01DX009 (ip), vehicle: Klucel (hydroxypropylcellulose) (HPC), higher = longer survival) 98 % of control; (endpoint: median survival time, dose: 37.5 mg/kg/injection, schedule: Q01DX009 (ip), vehicle: Klucel (hydroxypropylcellulose) (HPC), higher = longer survival) 96 % of control.

Consider `CC(C)=CCC/C(C)=C/C=O`, for which the T/C reads like this: (endpoint: mean tumor weight, dose: 50.0 mg/kg/injection, schedule: Q01DX010 (ip), vehicle: saline, higher = larger tumour) 84 % of control; (endpoint: mean tumor weight, dose: 100.0 mg/kg/injection, schedule: Q01DX010 (ip), vehicle: saline, higher = larger tumour) 61 % of control.

As for `C/C=C(\C)c1cc(=O)c2c(C)cc3c(c2o1)C(=O)c1c(O)c(C2CC(C)(N(C)C)C(O)C(C)O2)cc(C2CC(N(C)C)C(O)C(C)O2)c1C3=O` (centres undefined), the T/C reads like this: (endpoint: median survival time, dose: 0.5 mg/kg/injection, schedule: Q01DX009 (ip), vehicle: Klucel (hydroxypropylcellulose) (HPC), higher = longer survival) 100 % of control; (endpoint: median survival time, dose: 2.0 mg/kg/injection, schedule: Q01DX009 (ip), vehicle: Klucel (hydroxypropylcellulose) (HPC), higher = longer survival) 96 % of control.

In the case of `CCCCC[C@H](O)/C=C/[C@@H]1[C@@H](C/C=C\CCCC(=O)O)[C@@H](O)C[C@H]1O`, the T/C reads like this: (endpoint: median survival time, dose: 2.5 mg/kg/injection, schedule: Q04DX003 (ip), vehicle: saline, higher = longer survival) 118 % of control; (endpoint: median survival time, dose: 5.0 mg/kg/injection, schedule: Q04DX003 (ip), vehicle: saline, higher = longer survival) 105 % of control; (endpoint: median survival time, dose: 10.0 mg/kg/injection, schedule: Q04DX003 (ip), vehicle: saline, higher = longer survival) 95 % of control; (endpoint: median survival time, dose: 20.0 mg/kg/injection, schedule: Q04DX003 (ip), vehicle: saline, higher = longer survival) 118 % of control; (endpoint: median survival time, dose: 40.0 mg/kg/injection, schedule: Q04DX003 (ip), vehicle: saline, higher = longer survival) 87 % of control; (endpoint: median survival time, dose: 80.0 mg/kg/injection, schedule: Q04DX003 (ip), vehicle: saline, higher = longer survival) 93 % of control. The T/C was 87 % of control (endpoint: median survival time, dose: 160.0 mg/kg/injection, schedule: Q04DX003 (ip), vehicle: saline, higher = longer survival) and 106 % of control (endpoint: median survival time, dose: 320.0 mg/kg/injection, schedule: Q04DX003 (ip), vehicle: saline, higher = longer survival).

For `Cc1cccc(C)c1[N+](=O)[O-]`, the T/C was 88 % of control (endpoint: mean tumor weight, dose: 133.0 mg/kg/injection, schedule: Q01DX011 (ip), vehicle: other, higher = larger tumour); 66 % of control under setting [3]; 67 % of control (endpoint: mean tumor weight, dose: 300.0 mg/kg/injection, schedule: Q01DX011 (ip), vehicle: other, higher = larger tumour).

Regarding `Cc1ccc(NC(=O)c2ccccc2)cc1[As]=[As]c1cc(NC(=O)c2ccccc2)ccc1C` (centres undefined), the T/C (endpoint: median survival time, dose: 0.63 mg/kg/injection, schedule: Q01DX009 (ip), vehicle: Klucel (hydroxypropylcellulose) (HPC), higher = longer survival) is 100 % of control and the T/C under setting [4] was 100 % of control.

Turning to `COc1cccc(C=O)c1O`, the T/C is, setting by setting: (endpoint: mean tumor weight, dose: 12.5 mg/kg/injection, schedule: Q01DX011 (ip), vehicle: carboxymethylcellulose (CMC), higher = larger tumour) 106 % of control; (endpoint: mean tumor weight, dose: 25.0 mg/kg/injection, schedule: Q01DX011 (ip), vehicle: carboxymethylcellulose (CMC), higher = larger tumour) 58 % of control; (endpoint: mean tumor weight, dose: 50.0 mg/kg/injection, schedule: Q01DX011 (ip), vehicle: carboxymethylcellulose (CMC), higher = larger tumour) 88 % of control.

Regarding `CCOP(=O)(N1CC1(C)C)N1CC1(C)C` (centres undefined), the T/C by setting is: (endpoint: median survival time, dose: 5.0 mg/kg/injection, schedule: Q01DX009 (ip), vehicle: saline, higher = longer survival) 94 % of control; (endpoint: median survival time, dose: 10.0 mg/kg/injection, schedule: Q01DX009 (ip), vehicle: saline, higher = longer survival) 101 % of control; (endpoint: median survival time, dose: 20.0 mg/kg/injection, schedule: Q01DX009 (ip), vehicle: saline, higher = longer survival) 94 % of control; (endpoint: median survival time, dose: 30.0 mg/kg/injection, schedule: Q01DX009 (ip), vehicle: saline, higher = longer survival) 101 % of control; (endpoint: median survival time, dose: 50.0 mg/kg/injection, schedule: Q01DX009 (ip), vehicle: saline, higher = longer survival) 90 % of control; (endpoint: median survival time, dose: 80.0 mg/kg/injection, schedule: Q01DX009 (ip), vehicle: saline, higher = longer survival) 99 % of control.

For `Nc1ncnc2c1ncn2C1OC(CO)CC1O` (centres undefined), the T/C is 101 % of control (endpoint: mean tumor weight, dose: 37.0 mg/kg/injection, schedule: Q01DX011 (ip), vehicle: saline, higher = larger tumour) and 86 % of control (endpoint: mean tumor weight, dose: 75.0 mg/kg/injection, schedule: Q01DX011 (ip), vehicle: saline, higher = larger tumour).

On to `Clc1cccc(Br)c1`, for which the T/C by setting is: (endpoint: mean tumor weight, dose: 25.0 mg/kg/injection, schedule: Q01DX011 (ip), vehicle: other, higher = larger tumour) 95 % of control; (endpoint: mean tumor weight, dose: 50.0 mg/kg/injection, schedule: Q01DX011 (ip), vehicle: other, higher = larger tumour) 81 % of control; (endpoint: mean tumor weight, dose: 100.0 mg/kg/injection, schedule: Q01DX011 (ip), vehicle: other, higher = larger tumour) 58 % of control; under setting [3], 30 % of control.

Take `COc1ccc2c(=O)cc(-c3ccccc3)n(C)c2c1`: the T/C is 109 % of control (endpoint: mean tumor weight, dose: 50.0 mg/kg/injection, schedule: Q01DX011 (ip), vehicle: saline, higher = larger tumour); 83 % of control under setting [5]; 79 % of control under setting [6].

As to `CCOC(N)=O`, the T/C is 119 % of control (endpoint: mean tumor weight, dose: 60.0 mg/kg/injection, schedule: Q01DX011 (ip), vehicle: saline, higher = larger tumour); 90 % of control under setting [5]; 123 % of control (endpoint: mean tumor weight, dose: 125.0 mg/kg/injection, schedule: Q01DX011 (ip), vehicle: saline, higher = larger tumour); 60 % of control and 67 % of control and 69 % of control under setting [6]; 62 % of control under setting [2]; 33 % of control and 41 % of control and 56 % of control (endpoint: mean tumor weight, dose: 400.0 mg/kg/injection, schedule: Q01DX011 (ip), vehicle: saline, higher = larger tumour). Besides, where the note is “endpoint: mean tumor weight, dose: 600.0 mg/kg/injection, schedule: Q01DX011 (ip), vehicle: saline, higher = larger tumour”, the T/C was 38 % of control.

Turning to `O=C(Nc1ccc(C(=O)O)cc1)Oc1ccc(N(CCCl)CCCl)cc1`, the T/C reads like this: (endpoint: median survival time, dose: 6.25 mg/kg/injection, schedule: Q01DX009 (ip), vehicle: Klucel (hydroxypropylcellulose) (HPC), higher = longer survival) 100 % of control; (endpoint: median survival time, dose: 12.5 mg/kg/injection, schedule: Q01DX009 (ip), vehicle: Klucel (hydroxypropylcellulose) (HPC), higher = longer survival) 100 % of control; (endpoint: median survival time, dose: 25.0 mg/kg/injection, schedule: Q01DX009 (ip), vehicle: Klucel (hydroxypropylcellulose) (HPC), higher = longer survival) 88 % of control.

With `COc1ccccc1-c1cc(=O)c2ccc(OC)c(OC)c2o1`, the T/C was 99 % of control (endpoint: mean tumor weight, dose: 18.8 mg/kg/injection, schedule: Q01DX010 (ip), vehicle: saline, higher = larger tumour); 81 % of control (endpoint: mean tumor weight, dose: 37.5 mg/kg/injection, schedule: Q01DX010 (ip), vehicle: saline, higher = larger tumour); 108 % of control (endpoint: mean tumor weight, dose: 75.0 mg/kg/injection, schedule: Q01DX010 (ip), vehicle: saline, higher = larger tumour); 76 % of control (endpoint: mean tumor weight, dose: 150.0 mg/kg/injection, schedule: Q01DX010 (ip), vehicle: saline, higher = larger tumour).

As to `COC(=O)[C@@H]1[C@@H](O)[C@H](OC(=O)c2cc(OC)c(OC)c(OC)c2)C[C@@H]2CN3CCc4c([nH]c5ccccc45)[C@H]3C[C@@H]21`, the T/C is, setting by setting: under setting [4], 108 % of control; (endpoint: median survival time, dose: 2.5 mg/kg/injection, schedule: Q01DX009 (ip), vehicle: Klucel (hydroxypropylcellulose) (HPC), higher = longer survival) 122 % of control; (endpoint: median survival time, dose: 5.0 mg/kg/injection, schedule: Q01DX009 (ip), vehicle: Klucel (hydroxypropylcellulose) (HPC), higher = longer survival) 88 % of control.
